ChEMBL document CHEMBL4261593, “Synthesis and antibacterial activity of novel 3-O-arylalkylcarbamoyl-3-O-descladinosyl-9-O-(2-chlorobenzyl)oxime clarithromycin derivatives” (2018)
Values after ≈ are worked out from the molar mass of the structure shown.

Experiments:
Assay type in all cases: functional
Streptococcus pyogenes [1] = assay: Antibacterial activity against erythromycin-susceptible Streptococcus pyogenes 1 after 24 hrs by broth dilution assay; conditions: Streptococcus pyogenes, 1, 24 h
Staphylococcus aureus [2] = assay: Antibacterial activity against erythromycin-susceptible Staphylococcus aureus ATCC 25923 after 24 hrs by broth dilution assay; conditions: ATCC 25923, 24 h
Escherichia coli = assay: Antibacterial activity against penicillin-susceptible Escherichia coli ATCC 25922 after 24 hrs by broth dilution assay; conditions: ATCC 25922, 24 h
Pseudomonas aeruginosa = assay: Antibacterial activity against penicillin-susceptible Pseudomonas aeruginosa ATCC 27853 after 24 hrs by broth dilution assay; conditions: ATCC 27853, 24 h
Bacillus subtilis = assay: Antibacterial activity against penicillin-susceptible Bacillus subtilis ATCC 9372 after 24 hrs by broth dilution assay; conditions: ATCC 9372, 24 h
Staphylococcus aureus [3] = assay: Antibacterial activity against […] Staphylococcus aureus ATCC 29213 after 24 hrs by broth dilution assay; conditions: ATCC 29213, 24 h
Staphylococcus aureus [4] = assay: Antibacterial activity against penicillin-resistant Staphylococcus aureus ATCC 31007 after 24 hrs by broth dilution assay; conditions: ATCC 31007, 24 h
Streptococcus pyogenes [5] = assay: Antibacterial activity against erythromycin-resistant Streptococcus pyogenes 2 after 24 hrs by broth dilution assay; conditions: Streptococcus pyogenes, 2, 24 h
Streptococcus pneumoniae [6] = assay: Antibacterial activity against erythromycin-resistant Streptococcus pneumoniae A22072 expressing mefA gene after 24 hrs by broth dilution assay; conditions: A22072, 24 h
Streptococcus pneumoniae [7] = assay: Antibacterial activity against erythromycin-resistant Streptococcus pneumoniae B1 expressing ermB gene after 24 hrs by broth dilution assay; conditions: B1, 24 h
Streptococcus pneumoniae [8] = assay: Antibacterial activity against erythromycin-resistant Streptococcus pneumoniae AB11 expressing ermB and mefA genes after 24 hrs by broth dilution assay; conditions: AB11, 24 h
Staphylococcus aureus [9] = assay: Potency index, ratio of CAM MIC to compound MIC for antibacterial activity against penicillin-resistant Staphylococcus aureus ATCC 31007
Staphylococcus aureus [10] = assay: Potency index, ratio of AZM MIC to compound MIC for antibacterial activity against penicillin-resistant Staphylococcus aureus ATCC 31007
Streptococcus pneumoniae [11] = assay: Potency index, ratio of CAM MIC to compound MIC for antibacterial activity against erythromycin-resistant Streptococcus pneumoniae A22072
Streptococcus pneumoniae [12] = assay: Potency index, ratio of AZM MIC to compound MIC for antibacterial activity against erythromycin-resistant Streptococcus pneumoniae A22072

Row | Compound | MIC (Streptococcus pyogenes [1]) | MIC (Staphylococcus aureus [2]) | MIC (Escherichia coli) | MIC (Pseudomonas aeruginosa) | MIC (Bacillus subtilis) | MIC (Staphylococcus aureus [3]) | MIC (Staphylococcus aureus [4]) | MIC (Streptococcus pyogenes [5]) | MIC (Streptococcus pneumoniae [6]) | MIC (Streptococcus pneumoniae [7]) | MIC (Streptococcus pneumoniae [8]) | Ratio (Staphylococcus aureus [9]) | Ratio (Staphylococcus aureus [10]) | Ratio (Streptococcus pneumoniae [11]) | Ratio (Streptococcus pneumoniae [12])
1 | CC[C@H]1OC(=O)[C@H](C)[C@@H](OC(=O)NCc2ccccc2)[C@H](C)[C@@H](O[C@@H]2O[C@H](C)C[C@H](N(C)C)[C@H]2O)[C@](C)(OC)C[C@@H](C)/C(=N/OCc2ccccc2Cl)[C@H](C)[C@@H](O)[C@]1(C)O | 2 µg/mL (≈ 2.32 µM) | 8 µg/mL (≈ 9.28 µM) | 128 µg/mL (≈ 148 µM) | 128 µg/mL (≈ 148 µM) | 2 µg/mL (≈ 2.32 µM) | 128 µg/mL (≈ 148 µM) | 4 µg/mL (≈ 4.64 µM) | 16 µg/mL (≈ 18.6 µM) | 0.5 µg/mL (≈ 0.58 µM) | 128 µg/mL (≈ 148 µM) | 128 µg/mL (≈ 148 µM) | 64 | 64 | – | –
2 | CC[C@H]1OC(=O)[C@H](C)[C@@H](OC(=O)NCCc2ccccc2Cl)[C@H](C)[C@@H](O[C@@H]2O[C@H](C)C[C@H](N(C)C)[C@H]2O)[C@](C)(OC)C[C@@H](C)/C(=N/OCc2ccccc2Cl)[C@H](C)[C@@H](O)[C@]1(C)O | 2 µg/mL (≈ 2.2 µM) | 8 µg/mL (≈ 8.78 µM) | 128 µg/mL (≈ 141 µM) | 128 µg/mL (≈ 141 µM) | 2 µg/mL (≈ 2.2 µM) | 128 µg/mL (≈ 141 µM) | 8 µg/mL (≈ 8.78 µM) | 16 µg/mL (≈ 17.6 µM) | 1 µg/mL (≈ 1.1 µM) | 128 µg/mL (≈ 141 µM) | 128 µg/mL (≈ 141 µM) | – | – | – | –
3 | CC[C@H]1OC(=O)[C@H](C)[C@@H](OC(=O)NC2CC2)[C@H](C)[C@@H](O[C@@H]2O[C@H](C)C[C@H](N(C)C)[C@H]2O)[C@](C)(OC)C[C@@H](C)/C(=N/OCc2ccccc2Cl)[C@H](C)[C@@H](O)[C@]1(C)O | 1 µg/mL (≈ 1.23 µM) | 8 µg/mL (≈ 9.85 µM) | 128 µg/mL (≈ 158 µM) | 128 µg/mL (≈ 158 µM) | 4 µg/mL (≈ 4.92 µM) | 128 µg/mL (≈ 158 µM) | 16 µg/mL (≈ 19.7 µM) | 16 µg/mL (≈ 19.7 µM) | 0.125 µg/mL (≈ 0.154 µM) | 128 µg/mL (≈ 158 µM) | 128 µg/mL (≈ 158 µM) | – | – | 16 | 32
4 | CC[C@H]1OC(=O)[C@H](C)[C@@H](OC(=O)NCCc2cccc(OC)c2)[C@H](C)[C@@H](O[C@@H]2O[C@H](C)C[C@H](N(C)C)[C@H]2O)[C@](C)(OC)C[C@@H](C)/C(=N/OCc2ccccc2Cl)[C@H](C)[C@@H](O)[C@]1(C)O | 2 µg/mL (≈ 2.21 µM) | 8 µg/mL (≈ 8.82 µM) | 128 µg/mL (≈ 141 µM) | 128 µg/mL (≈ 141 µM) | 4 µg/mL (≈ 4.41 µM) | 128 µg/mL (≈ 141 µM) | 4 µg/mL (≈ 4.41 µM) | 8 µg/mL (≈ 8.82 µM) | 1 µg/mL (≈ 1.1 µM) | 128 µg/mL (≈ 141 µM) | 128 µg/mL (≈ 141 µM) | – | – | – | –
5 | CCCCCCNC(=O)O[C@H]1[C@H](C)[C@@H](O[C@@H]2O[C@H](C)C[C@H](N(C)C)[C@H]2O)[C@](C)(OC)C[C@@H](C)/C(=N/OCc2ccccc2Cl)[C@H](C)[C@@H](O)[C@](C)(O)[C@@H](CC)OC(=O)[C@@H]1C | 2 µg/mL (≈ 2.33 µM) | 16 µg/mL (≈ 18.7 µM) | 128 µg/mL (≈ 149 µM) | 128 µg/mL (≈ 149 µM) | 2 µg/mL (≈ 2.33 µM) | 128 µg/mL (≈ 149 µM) | 4 µg/mL (≈ 4.67 µM) | 8 µg/mL (≈ 9.34 µM) | 1 µg/mL (≈ 1.17 µM) | 128 µg/mL (≈ 149 µM) | 128 µg/mL (≈ 149 µM) | – | – | – | –
6 | CCNC(=O)O[C@H]1[C@H](C)[C@@H](O[C@@H]2O[C@H](C)C[C@H](N(C)C)[C@H]2O)[C@](C)(OC)C[C@@H](C)/C(=N/OCc2ccccc2Cl)[C@H](C)[C@@H](O)[C@](C)(O)[C@@H](CC)OC(=O)[C@@H]1C | 2 µg/mL (≈ 2.5 µM) | 16 µg/mL (≈ 20 µM) | 128 µg/mL (≈ 160 µM) | 128 µg/mL (≈ 160 µM) | 8 µg/mL (≈ 9.99 µM) | 128 µg/mL (≈ 160 µM) | 16 µg/mL (≈ 20 µM) | 32 µg/mL (≈ 40 µM) | 1 µg/mL (≈ 1.25 µM) | 128 µg/mL (≈ 160 µM) | 128 µg/mL (≈ 160 µM) | – | – | – | –
7 | CC[C@H]1OC(=O)[C@H](C)[C@@H](O)[C@H](C)[C@@H](O[C@@H]2O[C@H](C)C[C@H](N(C)C)[C@H]2O)[C@](C)(OC)C[C@@H](C)/C(=N/OCc2ccccc2Cl)[C@H](C)[C@@H](O)[C@]1(C)O | 4 µg/mL (≈ 5.48 µM) | 64 µg/mL (≈ 87.7 µM) | 128 µg/mL (≈ 175 µM) | 128 µg/mL (≈ 175 µM) | 16 µg/mL (≈ 21.9 µM) | 128 µg/mL (≈ 175 µM) | 32 µg/mL (≈ 43.9 µM) | 128 µg/mL (≈ 175 µM) | 4 µg/mL (≈ 5.48 µM) | 128 µg/mL (≈ 175 µM) | 128 µg/mL (≈ 175 µM) | – | – | – | –
8 | CC[C@H]1OC(=O)[C@H](C)[C@@H](OC(=O)NCc2ccccc2Cl)[C@H](C)[C@@H](O[C@@H]2O[C@H](C)C[C@H](N(C)C)[C@H]2O)[C@](C)(OC)C[C@@H](C)/C(=N/OCc2ccccc2Cl)[C@H](C)[C@@H](O)[C@]1(C)O | 4 µg/mL (≈ 4.46 µM) | 8 µg/mL (≈ 8.92 µM) | 128 µg/mL (≈ 143 µM) | 128 µg/mL (≈ 143 µM) | 2 µg/mL (≈ 2.23 µM) | 128 µg/mL (≈ 143 µM) | 4 µg/mL (≈ 4.46 µM) | 16 µg/mL (≈ 17.8 µM) | 1 µg/mL (≈ 1.11 µM) | 128 µg/mL (≈ 143 µM) | 128 µg/mL (≈ 143 µM) | – | – | – | –
